Numbers after ± are expanded uncertainties.
How the values were obtained:
[1] = an = ratio of the nth substance listed; conditions: for surface tension liquid-gas: Ring tensiometer; for electrical conductivity / viscosity / mass density: 101 kPa, Liquid; for electrical conductivity: Alternating current cell with electrodes; for viscosity: Capillary tube (Ostwald / Ubbelohde) method; for mass density: Vibrating tube method
[2] = refractive index (Na D-line) (dimensionless); an = ratio of the nth substance listed; conditions: 101 kPa, Liquid, Standard Abbe refractometry

OCC(O)CO [glycerol] + O=C([O-])[O-].[K+].[K+]
Conditions | electrical conductivity, [1] [S/m] | mass density, [1] [kg/m3] | refractive index, [2] | surface tension liquid-gas, [1] [mN/m] | viscosity, [1] [mPa·s]
293.15 K, a1 = 4 | 0.0008 ± 0.0002 | 1477.9 ± 2 | 1.4922 ± 0.0021 | 50.6 ± 2.1 | 28104 ± 3900
293.15 K, a1 = 5 | 0.0034 ± 0.0007 | 1447.2 ± 1.9 | 1.491 ± 0.0021 | 64.4 ± 2.2 | 18018 ± 2400
293.15 K, a1 = 6 | 0.0052 ± 0.001 | 1423.6 ± 1.8 | 1.4897 ± 0.0021 | 69.5 ± 2.3 | 5500 ± 690
303.15 K, a1 = 4 | 0.003 ± 0.0006 | 1472 ± 2 | 1.4906 ± 0.0021 | 46.1 ± 2.1 | 10100 ± 1300
303.15 K, a1 = 5 | 0.0082 ± 0.0016 | 1441.4 ± 1.9 | 1.4894 ± 0.0021 | 59.1 ± 2.2 | 8899 ± 1200
303.15 K, a1 = 6 | 0.0112 ± 0.0022 | 1417.8 ± 1.8 | 1.4882 ± 0.0021 | 66.8 ± 2.2 | 3500 ± 420
313.15 K, a1 = 4 | 0.0069 ± 0.0014 | 1466.1 ± 1.9 | 1.4888 ± 0.0021 | 45.2 ± 2.1 | 3330 ± 410
313.15 K, a1 = 5 | 0.0154 ± 0.0031 | 1435.5 ± 1.9 | 1.488 ± 0.0021 | 56.7 ± 2.2 | 3440 ± 420
313.15 K, a1 = 6 | 0.0247 ± 0.0049 | 1411.9 ± 1.8 | 1.4866 ± 0.0021 | 65.6 ± 2.2 | 1710 ± 200
323.15 K, a1 = 4 | 0.0162 ± 0.0032 | 1460.2 ± 1.9 | 1.4862 ± 0.0021 | 44.4 ± 2.1 | 1400 ± 160
323.15 K, a1 = 5 | 0.0371 ± 0.0074 | 1429.6 ± 1.8 | 1.4853 ± 0.0021 | 55.3 ± 2.2 | 1418 ± 160
323.15 K, a1 = 6 | 0.0393 ± 0.0079 | 1405.9 ± 1.8 | 1.4845 ± 0.0021 | 64 ± 2.2 | 767 ± 85
333.15 K, a1 = 4 | 0.0313 ± 0.0063 | 1454.1 ± 1.9 | 1.4857 ± 0.0021 | 43.4 ± 2.1 | 663 ± 72
333.15 K, a1 = 5 | 0.076 ± 0.015 | 1423.4 ± 1.8 | 1.4839 ± 0.0021 | 54.7 ± 2.2 | 646 ± 71
333.15 K, a1 = 6 | 0.121 ± 0.024 | 1399.8 ± 1.8 | 1.4827 ± 0.0021 | 63 ± 2.2 | 378 ± 40
343.15 K, a1 = 4 | 0.0583 ± 0.012 | 1448.1 ± 1.9 | 1.4846 ± 0.0021 | 42.6 ± 2.1 | 323 ± 34
343.15 K, a1 = 5 | 0.139 ± 0.028 | 1417.5 ± 1.8 | 1.4818 ± 0.0021 | 53.7 ± 2.2 | 323 ± 34
343.15 K, a1 = 6 | 0.163 ± 0.033 | 1393.8 ± 1.8 | 1.4808 ± 0.0021 | 62.2 ± 2.2 | 203 ± 21
353.15 K, a1 = 4 | 0.204 ± 0.041 | 1442.2 ± 1.9 | 1.4839 ± 0.0021 | 41.6 ± 2.1 | 200 ± 20
353.15 K, a1 = 5 | 0.313 ± 0.063 | 1411.4 ± 1.8 | 1.4783 ± 0.0021 | 51.3 ± 2.2 | 178 ± 19
353.15 K, a1 = 6 | 0.341 ± 0.068 | 1387.7 ± 1.7 | 1.4789 ± 0.0021 | 61.5 ± 2.2 | 115 ± 12

O=C([O-])[O-].[K+].[K+] [potassium carbonate] + OCCO
Conditions | electrical conductivity, [1] [S/m] | mass density, [1] [kg/m3] | refractive index, [2] | surface tension liquid-gas, [1] [mN/m] | viscosity, [1] [mPa·s]
293.15 K, a2 = 6 | 0.22 ± 0.022 | 1338.8 ± 1.6 | 1.4598 ± 0.0021 | 28.4 ± 0.5 | 227 ± 24
293.15 K, a2 = 7 | 0.238 ± 0.024 | 1314 ± 1.5 | 1.4565 ± 0.0021 | 28.3 ± 0.5 | 149 ± 15
293.15 K, a2 = 8 | 0.231 ± 0.023 | 1295.5 ± 1.5 | 1.457 ± 0.0021 | 27.8 ± 0.49 | 117 ± 12
303.15 K, a2 = 6 | 0.34 ± 0.034 | 1332.1 ± 1.6 | 1.4576 ± 0.0021 | 27.8 ± 0.49 | 120 ± 12
303.15 K, a2 = 7 | 0.425 ± 0.043 | 1307.3 ± 1.5 | 1.4548 ± 0.0021 | 27.7 ± 0.49 | 81 ± 8
303.15 K, a2 = 8 | 0.365 ± 0.036 | 1288.8 ± 1.5 | 1.4556 ± 0.0021 | 27.3 ± 0.48 | 66 ± 7
313.15 K, a2 = 6 | 0.51 ± 0.051 | 1325.3 ± 1.6 | 1.455 ± 0.0021 | 27.3 ± 0.48 | 69 ± 7
313.15 K, a2 = 7 | 0.537 ± 0.054 | 1300.6 ± 1.5 | 1.4525 ± 0.0021 | 27.2 ± 0.48 | 49 ± 5
313.15 K, a2 = 8 | 0.531 ± 0.053 | 1282.1 ± 1.5 | 1.4536 ± 0.0021 | 26.7 ± 0.47 | 40 ± 4
323.15 K, a2 = 6 | 0.78 ± 0.078 | 1318.5 ± 1.6 | 1.4533 ± 0.0021 | 26.8 ± 0.47 | 42 ± 4
323.15 K, a2 = 7 | 0.801 ± 0.08 | 1293.8 ± 1.5 | 1.4507 ± 0.0021 | 26.7 ± 0.47 | 31 ± 3
323.15 K, a2 = 8 | 0.73 ± 0.073 | 1275.3 ± 1.5 | 1.4513 ± 0.0021 | 26.1 ± 0.46 | 26 ± 3
333.15 K, a2 = 6 | 1.17 ± 0.12 | 1311.7 ± 1.5 | 1.4519 ± 0.0021 | 26.1 ± 0.46 | 28 ± 3
333.15 K, a2 = 7 | 1.18 ± 0.12 | 1287 ± 1.5 | 1.449 ± 0.0021 | 26 ± 0.46 | 21 ± 2
333.15 K, a2 = 8 | 1.04 ± 0.1 | 1268.5 ± 1.4 | 1.4496 ± 0.0021 | 25.5 ± 0.45 | 18 ± 2
343.15 K, a2 = 6 | 1.51 ± 0.15 | 1304.9 ± 1.5 | 1.4485 ± 0.0021 | 25.5 ± 0.45 | 20 ± 2
343.15 K, a2 = 7 | 1.53 ± 0.15 | 1280.1 ± 1.5 | 1.4459 ± 0.0021 | 25.3 ± 0.45 | 15 ± 2
343.15 K, a2 = 8 | 1.4 ± 0.14 | 1261.7 ± 1.4 | 1.4469 ± 0.0021 | 24.8 ± 0.44 | 13 ± 1

From the NIST ThermoML archive (doi:10.1016/j.tca.2013.10.028)
